Measurements from patent US9988370B2, “Benzisoxazole derivative salt” (RaQualia Pharma Inc., priority 2014, dated 2018).

Columns and labels:
[1] = Solid-state stability study under 40° C./75% RH (HPLC remaining % and purity); type: physicochemical; conditions: 40° C./75% RH for 6 month; for Purity (Area %) Main peak: counterion area excluded
Experimental: HPLC data are obtained by Waters Alliance 2695 HPLC system with 2996 PDA detector using the following conditions; • Column: Inertsil ODS-3 (3 microm, 4.6×150 mm), • Eluent: acetonitrile/10 mM ammonium acetate=32/68, • Detection: UV at 215 nm, • Flow rate: 1 mL/min, and • Column temperature: 40° C.
Solid-state stability study is performed using Nagano Science Constant temperature/humidity control chamber LH-20-11M or LH-21-11M. The sample is placed in the chamber and exposed under 40° C./75% RH. The crystalline form and thermal behavior of the resultant sample after the exposure are evaluated by PXRD and TG/DTA, respectively. The remaining % and the purity are determined by HPLC measurement.

[2] = Hygroscopicity study (storage at 90% RH, weighing and PXRD after five days); type: physicochemical; conditions: for PXRD (compared to intact bulk) / PXRD - overnight at ambient condition: after five days at 90% RH; for PXRD - overnight at ambient condition: then equilibrated at ambient temperature overnight; for Water uptake after 5 days: humidity chamber at 90% RH (BaCl2-2H2O), five days
Experimental: The salt samples are weighed into aluminum crucibles, placed onto a sample holder, and stored in the humidity chamber at 90% RH (BaCl2-2H2O). The samples are visually inspected with a hand magnifying lens and weighed on an analytical balance after five days. The samples are analyzed by PXRD after five days, then allowed to equilibrate at ambient temperatures overnight and re-analyzed by PXRD to evaluate stability of suspected hydrates under ambient conditions.

For “4-{[4-({[4-(2,2,2-trifluoroethoxy)-1,2-benzisoxazol-3-yl]oxy}methyl)piperidin-1-yl]methyl}tetrahydro-2H-pyran-4-carboxylic acid hemi-ethanedisulfonate salt [EDSA-salt]”, the “Assay Remaining %” value [1] was 99%, the “Purity (Area %) Main peak” value [1] was 100.0 Area % and the “PXRD (compared to intact bulk)” value [2] was “same”. For the same compound, the “PXRD - overnight at ambient condition” value [2] was “no change”.

With `O=C(O)C1(CN2CCC(COc3noc4cccc(OCC(F)(F)F)c34)CC2)CCOCC1` [Free form, 4-{[4-({[4-(2,2,2-trifluoroethoxy)-1,2-benzisoxazol-3-yl]oxy}methyl)piperidin-1-yl]methyl}tetrahydro-2H-pyran-4-carboxylic acid] the “Assay Remaining %” value [1] was 87%, the “Purity (Area %) Main peak” value [1] was 95.6 Area % and the “PXRD (compared to intact bulk)” value [2] was “different from the intact bulk”. The “PXRD - overnight at ambient condition” value [2] was “no change” and the “Water uptake after 5 days” value [2] was 16.7 wt %.

For `Br.O=C(O)C1(CN2CCC(COc3noc4cccc(OCC(F)(F)F)c34)CC2)CCOCC1` [HBr-salt, 4-{[4-({[4-(2,2,2-trifluoroethoxy)-1,2-benzisoxazol-3-yl]oxy}methyl)piperidin-1-yl]methyl}tetrahydro-2H-pyran-4-carboxylic acid hydrobromide salt], the “Assay Remaining %” value [1] was 99%, the “Purity (Area %) Main peak” value [1] was 99.9 Area % and the “PXRD (compared to intact bulk)” value [2] was “same”. The “PXRD - overnight at ambient condition” value [2] was “no change”.

With `Cl.O=C(O)C1(CN2CCC(COc3noc4cccc(OCC(F)(F)F)c34)CC2)CCOCC1` [HCl-salt, 4-{[4-({[4-(2,2,2-trifluoroethoxy)-1,2-benzisoxazol-3-yl]oxy}methyl)piperidin-1-yl]methyl}tetrahydro-2H-pyran-4-carboxylic acid hydrochloride salt] the “Assay Remaining %” value [1] was 97%, the “Purity (Area %) Main peak” value [1] was 98.8 Area % and the “PXRD (compared to intact bulk)” value [2] was “same”. For the same compound, the “PXRD - overnight at ambient condition” value [2] was “no change”.

For `Cc1ccc(S(=O)(=O)O)cc1.O=C(O)C1(CN2CCC(COc3noc4cccc(OCC(F)(F)F)c34)CC2)CCOCC1` [pTSA-salt, 4-{[4-({[4-(2,2,2-trifluoroethoxy)-1,2-benzisoxazol-3-yl]oxy}methyl)piperidin-1-yl]methyl}tetrahydro-2H-pyran-4-carboxylic acid p-toluenesulfonate salt], the “Assay Remaining %” value [1] was 98%, the “Purity (Area %) Main peak” value [1] was 99.7 Area % and the “PXRD (compared to intact bulk)” value [2] was “same”. The “PXRD - overnight at ambient condition” value [2] was “no change”.

In the case of `O=C([O-])C1(CN2CCC(COc3noc4cccc(OCC(F)(F)F)c34)CC2)CCOCC1.[Na+]` [sodium salt, 4-{[4-({[4-(2,2,2-trifluoroethoxy)-1,2-benzisoxazol-3-yl]oxy}methyl)piperidin-1-yl]methyl}tetrahydro-2H-pyran-4-carboxylic acid sodium salt], the “Water uptake after 5 days” value [2] is reported as “more than 40 wt %”.
